From patent US8697729B2, “Small molecules modulator of epigenetic regulation and their therapeutic applications” (University of Southern California, priority 2008, dated 2014)
Entries after “also recorded” stand apart in the source; their conditions may differ. Blank lines part the entries; values can stand above or below the molecule they belong to.

Legend:
HDAC4:MEF2 interaction = molecular target: T1, HDAC4:MEF2 interaction (Homo sapiens, UniProt Q14814); test: Mammalian two-hybrid luciferase reporter assay (GAL4-MEF2D / HDAC4-VP16 / GAL4Luc); type: cell-based
T1 sequence (Q14814 1-521): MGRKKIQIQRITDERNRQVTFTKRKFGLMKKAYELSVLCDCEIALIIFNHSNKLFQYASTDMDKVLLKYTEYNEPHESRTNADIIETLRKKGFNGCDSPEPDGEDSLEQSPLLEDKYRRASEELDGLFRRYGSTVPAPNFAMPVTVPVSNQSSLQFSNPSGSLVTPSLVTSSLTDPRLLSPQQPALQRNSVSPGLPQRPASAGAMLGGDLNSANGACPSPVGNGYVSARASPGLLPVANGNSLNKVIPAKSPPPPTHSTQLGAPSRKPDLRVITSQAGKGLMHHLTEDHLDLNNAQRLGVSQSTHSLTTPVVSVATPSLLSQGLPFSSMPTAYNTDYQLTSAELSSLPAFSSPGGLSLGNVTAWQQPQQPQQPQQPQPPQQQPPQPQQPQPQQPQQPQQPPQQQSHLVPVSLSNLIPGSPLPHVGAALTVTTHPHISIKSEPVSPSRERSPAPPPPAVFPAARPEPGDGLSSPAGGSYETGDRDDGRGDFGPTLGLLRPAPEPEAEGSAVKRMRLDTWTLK
Description: In a preferred embodiment, there is disclosed herein a two-hybrid system based assay includes a binding domain fused with a bait, an activating domain fused with a prey, and a reporter gene; and determining a reporter signal level.
A series of MEF2-dependent luciferase reporter assays with transiently transfected MEF2D, HDAC4 and the co-activator p300 were used initially to screen various compounds. But these assays gave weak signal and high frequency of false positives, probably due to the complex transcription activation mechanisms of MEF2 and interference from endogenous factors. Through these observations, it was discovered that a highly sensitive and specific assay that can recapitulate the molecular interaction between HDAC4 and MEF2 inside cells is essential.
Taking advantage of the structural insights, in addition to the MEF2D L67D mutant mentioned above, we introduced a number mutations in HDAC4 that had been previously shown to disrupt HDAC4:MEF2 interaction in vitro. These mutations also diminished the luciferase signal in the cell-based assay (FIG. 3b).

MEF2A (1-95) = molecular target: T2, MEF2A (1-95) (Homo sapiens, UniProt Q02078); test: Surface plasmon resonance (Biacore T-100) competition: MEF2A (1-95) binding to immobilized HDAC4 (aa 155-220); conditions: for binding of MEF2A to immobilized HDAC4 after incubation with compound: Biacore, increasing concentrations (FIG. 5)
T2 construct: purified MEF2A (1-95) was used as the analyte
T2 sequence (Q02078 1-95): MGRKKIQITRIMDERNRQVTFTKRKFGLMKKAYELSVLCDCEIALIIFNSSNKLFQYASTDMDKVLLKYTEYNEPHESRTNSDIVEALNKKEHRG
Description: Here HDAC4 (aa 155-220) was immobilized on a CM5 sensor chip and purified MEF2A (1-95) was used as the analyte. The binding of MEF2A to HDAC4 at various concentrations generated a series of well-defined sensorgrams (data not shown). […] These technical limitations made it difficult to obtain a quantitative binding constant.

frataxin expression = conditions: Friedreich's ataxia; cited from earlier work
[1] = tested on: acetylation of histone but not tubulin; conditions: cited from earlier work
GAL4-VP16 = conditions: 10 μM; non-specific inhibition
HDAC = conditions: cited from earlier work
MEF2 = test: in vitro binding, method not stated

normalized luciferase activity in MEF2-HDAC luciferase reporter assay (HDAC4:MEF2 interaction; 24 hrs after treatment (FIG. 4)): decreased in a dose dependent manner
direct binding to MEF2 by Biacore (MEF2A (1-95)): beyond the detection limit
Molecule: Nc1ccccc1NC(=O)CCCCCCC(=O)Nc1ccccc1 [BML-210, suberoylanilide orthoaminoanilide]
binding of MEF2A to immobilized HDAC4 after incubation with compound (MEF2A (1-95)): bind MEF2 competitively with HDAC4; also recorded: competitive inhibition

Molecule: Nc1ccccc1NC(=O)CCCCCC(=O)Nc1ccccc1 [PAOA, pimeloylanilide orthoaminoanilide]
expression of HDAC4-VP16 (HDAC4:MEF2 interaction): did not affect
decrease of reporter signal driven by GAL4-MEF2D and HDAC4-VP16 (HDAC4:MEF2 interaction; 10 μM): about 26 fold
inhibition of the reporter signal in the mammalian two-hybrid assay (HDAC4:MEF2 interaction; GAL4-MEF2D/HDAC4-VP16, Hela cells): inhibited the reporter signal in a dose dependent manner
IC50 (HDAC4:MEF2 interaction; based on the mammalian two-hybrid assay): ~5000 nM
Kd (HDAC4:MEF2 interaction; estimated assuming equilibrium HDAC4 concentration ~0.5 μM and HDAC4:MEF2 Kd 0.47 μM, read-out: Kd for binding to MEF2 (estimated)): ~5000 nM
frataxin expression / induction (frataxin expression): enhance the expression of frataxin
selective induction of histone versus tubulin acetylation [1]: selectively induce acetylation of histone but not tubulin
binding of MEF2A to immobilized HDAC4 after incubation with compound (MEF2A (1-95)): dose dependent decrease; also recorded: binds MEF2 competitively with HDAC4
reduction of reporter signal driven by GAL4-VP16 (GAL4-VP16): 5.6 fold

Molecule: O=C(CCCCCCC(=O)Nc1ccccc1)NO [SAHA, Vorinostat]
frataxin expression / induction (frataxin expression): no effect; also recorded: did not have this type of activity

Molecule: Cc1ccc(NC(=O)CCCCCC(=O)Nc2ccccc2N)cc1 [compound 106, N^1-(2-aminophenyl)-N^7-p-tolylheptanediamide]
frataxin expression / induction (frataxin expression): very active

Molecule: CC(/C=C/C(=O)NO)=C\[C@@H](C)C(=O)c1ccc(N(C)C)cc1 [trichostatin A (TSA), trichostatin A]
IC50 HDAC inhibition (HDAC): low nanomolar range
frataxin expression / induction (frataxin expression): no effect

Kd (MEF2): 810 nM
weakening of binding against wild type HDAC4 (MEF2): 60%
Molecule: HDAC4 mutant Val180Lys (in vitro binding) (from UniProt P56524 155-220)

Kd (MEF2): 470 nM
Molecule: wild type HDAC4 (in vitro binding) (from UniProt P56524 155-220)
